In US11667652B2, “MCL1 inhibitors” (Gilead Sciences, Inc., priority 2019, dated 2023):

Key:
[1] = tested on: SKBR3 cells; assay: SKBR3 Cell Viability Assay; type: cell-based; details: Homo sapiens, SK-BR-3, 72 hours, CellTiter Glo, read-out: MCL1 CV SKBR3 EC50
How it was run: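 SKBR3 cells (6,000/well, McCoy's 5A + 10% FBS) were added onto pre-spotted serial compound dilutions and incubated 72 h at 37° C, 5% CO2. Viability was read by CellTiter-Glo luminescence, with % inhibition normalised to DMSO (negative) and 10 μM puromycin (positive).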

[2] = molecular target: MCL1/Bim (Homo sapiens (Human), UniProt Q07820); assay: MCL1/Bim Binding AlphaLISA Assay; details: recombinant human 6xHis-MCL1 (171-327), biotinylated Bim peptide (51-76)
Sequence of MCL1/Bim (Q07820 171-327): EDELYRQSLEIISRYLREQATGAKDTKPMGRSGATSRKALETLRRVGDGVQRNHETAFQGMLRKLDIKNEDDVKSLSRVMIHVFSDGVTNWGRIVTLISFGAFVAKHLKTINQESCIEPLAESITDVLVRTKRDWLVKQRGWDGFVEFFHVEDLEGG
How it was run: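 AlphaLISA with 0.0625 nM human 6×His-MCL1 (171-327) and 0.0625 nM biotinylated Bim (51-76) peptide in 20 mM Hepes pH 7.5, 150 mM NaCl, 0.002% Brij 35, 1 mM DTT, 0.01% BSA. Compound preincubated with MCL1 1 h, Bim added 2 h, then acceptor and donor beads 1 h each; % inhibition versus DMSO and no-protein/peptide controls.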

EC50 [1] | IC50 [2] | SMILES
1390 nM | 0.221 nM | CO[C@H]1/C=C/C[C@H](C)C[S@@](=O)(Nc2cnccn2)=NC(=O)c2ccc3c(c2)N(C[C@@H]2CC[C@H]21)C[C@@]1(CCCc2cc(Cl)ccc21)CO3 [Example 1]
53.6 nM | 0.041 nM | COc1nn(C)cc1C(=O)N[S@@]1(=O)=NC(=O)c2ccc3c(c2)N(C[C@@H]2CC[C@H]2[C@@H](OC)/C=C/[C@H](OCCN2CCN(C)CC2)[C@H](C)C1)C[C@@]1(CCCc2cc(Cl)ccc21)CO3 [Example 82]
